Laboratory results published in paper PMC6934184, “Selective DNA-PKcs inhibition extends the therapeutic index of localized radiotherapy and chemotherapy” (The Journal of Clinical Investigation, 2019).

Target: T1, EPHB3 (Homo sapiens, UniProt P54753)
T1 construct: purchased Thermo Fisher Scientific (Life Technologies) SelectScreen
Assay: SelectScreen Z'LYTE
Type: biochemical
In short: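 SelectScreen broad panel; activity (Z'LYTE, Adapta) plus binding formats. ATP: Km app for CSF1R Z'LYTE; 10 for CAMK1 Adapta. Readout = % per kinase.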

T1 sequence (P54753 34-998): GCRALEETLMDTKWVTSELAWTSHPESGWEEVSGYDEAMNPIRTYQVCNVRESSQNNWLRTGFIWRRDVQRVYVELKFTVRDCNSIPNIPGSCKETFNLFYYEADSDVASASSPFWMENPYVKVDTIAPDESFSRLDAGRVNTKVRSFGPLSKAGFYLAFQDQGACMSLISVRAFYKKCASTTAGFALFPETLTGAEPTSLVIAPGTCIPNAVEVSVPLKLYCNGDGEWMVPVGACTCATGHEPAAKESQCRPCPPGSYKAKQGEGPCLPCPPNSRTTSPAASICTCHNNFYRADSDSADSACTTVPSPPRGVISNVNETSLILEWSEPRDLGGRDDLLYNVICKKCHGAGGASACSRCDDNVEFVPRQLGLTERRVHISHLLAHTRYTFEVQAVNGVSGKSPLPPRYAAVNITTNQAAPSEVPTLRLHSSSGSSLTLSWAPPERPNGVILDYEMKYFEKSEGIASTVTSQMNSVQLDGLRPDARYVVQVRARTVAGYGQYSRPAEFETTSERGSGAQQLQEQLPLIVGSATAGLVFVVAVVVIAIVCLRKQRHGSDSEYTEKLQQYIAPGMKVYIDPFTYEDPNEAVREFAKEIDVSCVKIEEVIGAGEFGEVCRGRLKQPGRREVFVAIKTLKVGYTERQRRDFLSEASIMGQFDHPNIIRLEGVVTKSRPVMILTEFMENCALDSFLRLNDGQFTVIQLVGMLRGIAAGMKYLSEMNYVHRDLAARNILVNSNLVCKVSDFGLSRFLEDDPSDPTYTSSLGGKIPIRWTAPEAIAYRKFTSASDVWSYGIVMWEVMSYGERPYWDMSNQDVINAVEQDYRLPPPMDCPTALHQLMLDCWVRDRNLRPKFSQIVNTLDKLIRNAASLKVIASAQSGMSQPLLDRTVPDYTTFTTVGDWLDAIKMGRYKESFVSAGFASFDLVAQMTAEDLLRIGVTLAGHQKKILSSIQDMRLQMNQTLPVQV

`CN(C(=O)CN1CCOCC1)c1ccc2sc3c(-c4cccc5c(=O)cc(N6CC7CCC(C6)O7)oc45)cccc3c2c1` [NU5455] gave an inhibition at 1 µM of 1.1%.
